These results are taken from patent publication US8318808B2, “Zn2+chelating motif-tethered short-chain fatty acids as a novel class of histone deacetylase inhibitors” (The Ohio State University Research Foundation, priority 2007, dated 2012).

Where two headings read alike, the source gives them in different places.

In data set [1] the test system is acetylated histones H3 and H4 and p21WAF/CIP1 in DU-145 cells. Briefly: Western blot of histone acetylation and p21WAF/CIP1 expression in DU-145 cells. The data set is classed as cell-based. The following applies: for levels of acetylated histones H3 and H4, and p21WAF/CIP1: 10% FBS, HTPB 0.5-[…], TSA 0.25-0.5 μM, phenylbutyrate 1-5 mM. How it is done:
Western blot analysis. DU-145 cells (1×10^6) treated with HTPB at the indicated concentrations in 10% FBS-supplemented RPMI 1640 medium for 24 h were collected, and sonicated. Protein concentrations of the lysates were determined by using a Bradford protein assay kit (Bio-Rad, Hercules, Calif.); equivalent amounts of proteins from each lysate were resolved in 10% SDS-polyacrylamide gel, and then transferred onto Immobilon-nitrocellulose membranes (Millipore, Bellerica, Mass.) in a semi-dry transfer cell. The transblotted membrane was washed twice with Tris-buffered saline (TBS) containing 0.1% Tween 20 (TBST). After blocking with TBST containing 5% nonfat milk for 40 min, the membrane was incubated with the primary antibody (1:1000 dilution) in TBST-1% nonfat milk at 4° C. overnight. After treatment with the primary antibody, the membrane was washed three times with TBST for a total of 15 min, followed by goat anti-rabbit or anti-mouse IgG-horseradish peroxidase conjugates (diluted 1:3000) for 1 h at room temperature and wash three times with TBST for a total of 1 h. The immunoblots were visualized by enhanced chemiluminescence.
DU-145 cells were exposed to HTPB at 0.5, 1, 2.5 μM, TSA at 0.25 and 0.5 μM, or phenylbutyrate at 1, 2.5, and 5 mM in 10% FBS-supplemented RPMI 1640 medium for 24 h. […] The effect of 1 μM HTPB on these biomarkers approximated that of 0.25 μM TSA, or 2.5 mM phenylbutyrate.

Data set [2] addresses histone deacetylase (HDAC) activity of DU-145 nuclear extract. The data set can be described thus: In vitro HDAC assay (histone deacetylase assay kit, [3H]-acetyl histone H4 peptide). The data set is classed as biochemical. As for the experimental part: In vitro HDAC assay. HDAC activity was analyzed by using a histone deacetylase assay kit (Upstate Biotechnology, Lake Placid, N.Y.) by following the manufacturer's instruction with slight modifications. […] The release of [^3 H]-acetate into the supernatant was measured to calculate the HDAC activity. Sodium butyrate (0.25-1 mM) was used as a positive control.

Data set [3] has as its system PC-3 xenograft tumors. Briefly: Growth of established subcutaneous PC-3 xenograft tumors. The following applies: for suppression of growth of established PC-3 tumors: oral route, 50 and 100 mg/kg/day (either dose); for reduction in the growth of the tumors vs vehicle-treated control: 50 mg/kg/day.
Procedure: In the in vivo experiment, PC-3 cells, suspended in equal volumes of serum-free medium and Matrigel basement membrane matrix, were injected subcutaneously into the flanks of 5-7 week old male NCr athymic nude mice (nu/nu) (0.5×10^6 cells/0.1 ml/mouse). […] The control group received p.o. or i.p. vehicle only (0.1% methylcellulose/0.05% Tween 80 in water and DMSO, respectively). Treatments continued until the mean tumor volume of the control group reached approximately 1,500 mm^3. Tumors were measured every week using Vernier calipers and their volumes calculated using a standard formula: width^2×length×0.52.
The subject of data set [4] is PC-3 cells. Briefly: cells. The following applies: Homo sapiens, PC-3, 72 h, read-out: IC50, PC-3 cell proliferation.
Data set [5] is described as follows: Toxicity, body weights and pathological evaluation of treated tumor-bearing mice. The following applies: for body weights: measured weekly, compound 42 or 44 oral 50 and 100 mg/kg/day, SAHA i.p. 50 mg/kg/day. The data set is classed as in vivo, NCr athymic nude mice (nu/nu). How it is done: At the conclusion of the study, complete pathological evaluation of one mouse from each treatment group was performed by board-certified veterinary pathologists at The Ohio State University College of Veterinary Medicine, which included clinical pathology (hematology, serum chemistries) and complete necropsy (gross and microscopic examination of at least 27 different tissues and organs). […] Hematological parameters were within normal limits except for a neutrophilia, which was observed only in mice from both vehicle-treated control groups and the SAHA- and compound 44 (50 mg/kg)-treated groups. Serum chemistry values were consistent with mild dehydration in the vehicle-treated mice, but were within normal limits for all other mice.

In data set [6] the test system is acetylation of histone H-3 in PC-3 xenograft tumors. Briefly: Western blot of acetylated histone H3 in PC-3 xenograft tumor homogenates. The data set is classed as in vivo, mice. The following applies: 28 days. (Immunoblotting shows a protein as a band on a membrane.)
Data set [7] relates to phospho-Akt in PC-3 cells (PTEN-/-). Briefly: Activation status of Akt in PC-3 cells. The data set is classed as cell-based. The following applies: comparable concentrations. An excerpt:
The effect of these agents on the activation status of Akt in PC-3 cells (PTEN^−/−) was also examined. Akt is constitutively activated in PC-3 cells due to lack of functional PTEN, which contributes to the androgen independency and chemotherapeutic resistance of these cells.

The test system of data set [8] is ERKs. Briefly: Phosphorylation level of ERKs in PC-3 cells. The data set is classed as cell-based. An excerpt: (§1) This dephosphorylating effect, however, is kinase-specific.
The subject of data set [9] is 60 cell lines. The data set can be described thus: Sixty-cell line screening by the NCI Developmental Therapeutics Program. The data set is classed as cell-based. The following applies: average against all 60 cell lines; read-out: average GI50 (50% inhibition of cell growth).
For data set [10], the system named is FAK (focal adhesion kinase). The data set can be described thus: Phosphorylation level of FAK in PC-3 cells. The data set is classed as cell-based.
Text: as §1

Data set [11] concerns p38. Briefly: Phosphorylation level of p38 in PC-3 cells. The data set is classed as cell-based.
Text: as §1

The test system of data set [12] is JNK. The data set can be described thus: Phosphorylation level of JNK in PC-3 cells. The data set is classed as cell-based.
Text: as §1

Data set [13] deals with chronic lymphocytic leukemia (TLC-1 transgenic mouse model). The data set can be described thus: Pilot in vivo study in TLC-1 transgenic mouse model. The following applies: 100 mg/kg oral gavage, 5 days on/two days off for 4 weeks.
Data set [14] relates to DU-145 cells. Briefly: Cell viability assay (MTT). The data set is classed as cell-based. The following applies: Homo sapiens, 10% FBS-supplemented RPMI-1640, read-out: IC50 in growth inhibition. As for the experimental part:
Cell viability assay. The effect of HTPB on cell viability was assessed by the MTT {[3-(4,5-dimethylthiazol-2-yl)-2,5-diphenyl-2 H-tetrazolium bromide]} assay in 96-well, flat-bottomed plates, in which 4,000 DU-145 cells/well were seeded. Cells were exposed to HTPB at the indicated concentrations in 10% FBS-supplemented RPMI-1640 medium at 37° C. in 5% CO2 for the indicated time. The medium was removed and replaced by 150 μl of 0.5 mg/ml of MTT in RPMI-1640 medium, and cells were incubated in the CO2 incubator at 37° C. for 2 hours. Supernatants were removed from the wells, and the reduced MTT dye was solubilized with 200 μl/well DMSO. Absorbance was determined on a plate reader at 570 nm. Each treatment was repeated in six wells.

Data set [15] has as its system DU-145 cells. Briefly: Apoptosis detection by Cell Death ELISA (nucleosomal DNA). The data set is classed as cell-based. How it is done:
Apoptosis Detection by An Enzyme-Linked Immunosorbent Assay (ELISA). Induction of apoptosis was assessed by using a Cell Death ELISA (Roche Diagnostics, Mannheim, Germany) by following the manufacturer's instruction. This test is based on the quantitative determination of cytoplasmic histone-associated DNA fragments in the form of mononucleosomes and oligonucleosomes after induced apoptotic death. In brief, 1×10^6 DU-145 cells were cultured in a T-75 flask 24 h prior to the experiment. Cells were treated with HTPB at the indicated concentrations in 10% FBS-supplemented RPMI 1640 medium. Both floating and adherent cells were collected, cell lysates equivalent to 2×10^3 cells were used in the ELISA.
(In general: ELISA stands for enzyme-linked immunosorbent assay.)

Setting [16] is: DU-145 nuclear extract, read-out: HDAC inhibition IC50.
Setting [17] is: DU-145 nuclear extract, running text, read-out: HDAC inhibition IC50.
Where [18] appears, read: parent short-chain fatty acid, read-out: HDAC inhibition IC50.
Where [19] appears, read: i.p., 50 mg/kg/day, one mouse per group.
The mark [20] stands for this setting: Table 1, representative phenylbutyrate-based HDAC inhibitors, read-out: IC50.

As for `CC(/C=C/C(=O)NO)=C\[C@@H](C)C(=O)c1ccc(N(C)C)cc1` [TSA, trichostatin A], in data set [1] (24 h), the “concentration with approximately equal effect on acetylated histones H3/H4 and p21WAF/CIP1” value amounted to 0.25 µM; the “levels of acetylated histones H3 and H4, and p21WAF/CIP1” value (“levels … and p21WAF/CIP1” for short) is listed as “elevated levels”.
On to `Nc1ccccc1NC(=O)c1ccc(NC(=O)CCCc2ccccc2)cc1` [compound 55, N-(2-Amino-phenyl)-4-(4-phenyl-butyrylamino)-benzamide], for which the IC50 in data set [2] (setting [16]) was 400 nM. In addition, the “drop in HDAC inhibitory potency when hydroxamate of compound 19 is replaced by phenylenediamine” value in [2] (relative to compound 19) turned out to be 10 fold.
Turning to `CC(C)(CCc1ccccc1)C(=O)Nc1ccc(C(=O)NO)cc1` [compound 44, 4-(2,2-Dimethyl-4-phenyl-butyrylamino)-N-hydroxy-benzamide], the “suppression of growth of established PC-3 tumors” value in data set [3] is “effective”. The IC50 in data set [4] was determined as 800 nM; in data set [2] (setting [17]), 32 nM. Also, the body weights result in data set [5] is given as “stable throughout the study”. Moreover, in data set [5] (oral, 50 mg/kg, one mouse per group), the hematological parameters entry is on record as “neutrophilia”.
On to phenylbutyrate, for which the “concentration required for the same effects on histone acetylation and p21WAF/CIP1 expression” value in data set [1] is recorded as “at least 2.5 mM”. For the same molecule, in data set [1] (24 h), the “concentration with approximately equal effect on acetylated histones H3/H4 and p21WAF/CIP1” value was found to be 2500 µM; the “levels … and p21WAF/CIP1” value was “elevated levels”. The IC50 in data set [2] (setting [18]) stood at 400000 nM.
For `CCCC(CCC)C(=O)Nc1ccc(CCC(=O)NO)cc1` [compound 8], in data set [2] (setting [16]), the IC50 came to 5000 nM.
Turning to `O=C(CCCCCCC(=O)Nc1ccccc1)NO` [SAHA, suberoylanilide hydroxamic acid, reference compound], in data set [3] (i.p.), the “reduction in the growth of the tumors vs vehicle-treated control” value is given as 69.9%. Moreover, the “acetylation level of histone H3 in PC-3 tumors” value in data set [6] (i.p., 50 mg/kg/day) is “significant increase”. Moreover, in data set [7], the “effect on phospho-Akt” value was “no appreciable effect”. Besides, in data set [5] (setting [19]), the “gross pathologic abnormalities at necropsy” value is on record as “small adhesions in the peritoneum” and the hematological parameters entry is recorded as “neutrophilia”. For the same molecule, in data set [5], the body weights entry was “stable throughout the study”.
`CCCC(CCC)C(=O)O` [valproic acid, reference compound]: the IC50 in [2] (setting [18]) amounted to 400000 nM.
For `CC[C@@H](C(=O)Nc1ccc(C(=O)NO)cc1)c1ccccc1` [compound 61, N-hydroxy-4-[2-(R)-phenylbutyrylamino]-benzamide], in data set [2] (setting [20]), the IC50 is 38 nM.
Regarding `CC(C)C(C(=O)Nc1ccc(C(=O)NO)cc1)c1ccccc1` (stereo not drawn) [compound 42, N-Hydroxy-4-(3-methyl-2-phenyl-butyrylamino)-benzamide], the “phosphorylation level of ERKs” value in [8] is on record as “diminished in a dose-dependent manner”. For the same molecule, the oral bioavailability result in data set [3] (mouse, in vivo, po) is given as “orally bioavailable”. Besides, in data set [3], the “suppression of growth of established PC-3 tumors” value was “effective”. The “reduction in the growth of the tumors vs vehicle-treated control” value in data set [3] (oral) is 70.4%. Further, in [3] (oral, 100 mg/kg/day), the “reduction in PC-3 tumor growth” value was 91.7%. Besides, the 50% growth inhibitory concentration (GI50) in data set [9] was found to be 200 nM. Further, in data set [6] (oral, 50 or 100 mg/kg/day), the “acetylation level of histone H3 in PC-3 tumors” value is listed as “significant increase”. Also, in [4], the IC50 stood at 600 nM. Also, the “phosphorylation level of FAK” value in data set [10] is on record as “diminished in a dose-dependent manner”. Besides, the “phosphorylation level of p38” value in data set [11] is recorded as “remained unaffected”. Also, in data set [12], the “phosphorylation level of JNK” value was “remained unaffected”. Further, the “toxicity in tumor-bearing mice” value in [5] (28-day course at 50 or 100 mg/kg/day) is “no demonstrable toxicity”. Also, the body weights result in [5] is listed as “stable throughout the study”. The “overt toxicity (body weights and pathological examination)” value in data set [5] (oral, 100 mg/kg/day) was “absence of overt toxicity”. In addition, in data set [13], the survival entry was “trend toward improved survival” and the toxicity result is on record as “no notable toxicity”.
On to `O=C(CCCc1ccccc1)Nc1ccc(C(=O)NO)cc1` [compound 19, N-Hydroxy-4-(4-phenylbutyrylamino)-benzamide], for which the “concentration causing hyperacetylation of histones H-3 and H-4 (as low as)” value in data set [1] was at most 0.5 µM. Further, the “concentration at which p21WAF/CIP1 level increased substantially (as low as)” value in data set [1] (24 h) is at most 0.5 µM. Besides, the “concentration with approximately equal effect on acetylated histones H3/H4 and p21WAF/CIP1” value in data set [1] (24 h) worked out at 1 µM. In data set [1] (24 h), the “levels … and p21WAF/CIP1” value is “elevated levels”. Also, the IC50 in data set [14] was 500 to 1000 nM; in data set [2] (setting [16]) it was 44 nM; in [2] (setting [17]) it was 44 nM; in data set [2] (setting [20]), 44 nM. For the same molecule, the “drug concentration above which extensive apoptosis occurred” value in data set [15] (24 h) is recorded as “exceeded 1 μM”. In data set [15] (24 h exposure), the “apoptosis (DNA fragmentation)” value is on record as “sensitized DU-145 cells to apoptosis in a dose-dependent manner”.

A word on the GI50: it is the concentration at which growth is held to half of that of the control.
